{
  "source": "patent EP0303483A2",
  "about": "“Novel lymphokine and compositions thereof” (THE UNIVERSITY OF BRITISH COLUMBIA, priority 1987, dated 1989)",
  "tested_on": "BDF1 spleen cells",
  "test": "CTL induction, PHA-P-mediated cytotoxicity assay (51Cr-labelled P815 targets), BDF1 spleen cells",
  "assay_type": "cell-based, mice",
  "conditions": "5 x 10³ BDF1 spleen cells",
  "experimental": "Cultures and Assays: The culture medium used was Iscove's Modified Dulbecco's medium supplemented with 10% fetal bovine serum (Bocknek, Rexdale, Ontario), 5 x 10⁻⁵M 2-mercaptoethanol, 50 U/ml of Penicillin and 50 µg/ml streptomycin. All cultures were incubated at 37°C in 5% CO₂ in humid air.\nFor CTL assays, cultures were set up by incubating the indicated number of spleen cells, lymph node cells or thymocytes with the appropriate lymphokine in conical bottomed microtiter plates (Flow Laboratories, #76-023-05) as previously described by Teh et al, 1983, supra. Five days later the cultures were assessed for cytotoxic activity in phytohemaglutinin (PHA-P)-mediated cytotoxicity assay as described by Bevan and Cohn, J. Immunol 1975 114:559. This assay detects CTL of all specificities. A total of 3 x 10³ ⁵¹Cr-labelled P815 (H-2^d) mastocytoma target cells (available from ATCC®) and 10 µg/ml of PHA-P were added to each well. Spontaneous release during the 3.5 hr assay period was about 10% of the maximum releasable counts.",
  "data": [
    {"smiles": "CCCCCCCCCCCCCC(=O)O[C@@H]1[C@@H](C)[C@@]2(O)[C@@H](C=C(CO)C[C@]3(O)C(=O)C(C)=C[C@@H]23)[C@@H]2C(C)(C)[C@]12OC(C)=O", "note": "[PMA, phorbol-12-myristate-13-acetate]", "values": [
      {"measurement": "% specific lysis (M SE)", "setting": "PMA 0.03 ng/ml with rIL-2 20 U/ml", "result": "3.5 ± 1.5", "unit": "%"},
      {"measurement": "% specific lysis (M SE)", "setting": "PMA 0.1 ng/ml alone", "result": "-2.2 ± 1.4", "unit": "%"},
      {"measurement": "% specific lysis (M SE)", "setting": "PMA 0.1 ng/ml with rIL-2 20 U/ml", "result": "15.7 ± 5.1", "unit": "%"},
      {"measurement": "% specific lysis (M SE)", "setting": "PMA 0.3 ng/ml alone", "result": "-3.2 ± 1.7", "unit": "%"},
      {"measurement": "% specific lysis (M SE)", "setting": "PMA 0.3 ng/ml with rIL-2 20 U/ml", "result": "14.8 ± 3.3", "unit": "%"},
      {"measurement": "% specific lysis (M SE)", "setting": "PMA 1.0 ng/ml alone", "result": "-2.5 ± 0.9", "unit": "%"},
      {"measurement": "% specific lysis (M SE)", "setting": "PMA 1.0 ng/ml with rIL-2 20 U/ml", "result": "2.8 ± 1.3", "unit": "%"},
      {"measurement": "% specific lysis (M SE)", "setting": "PMA 3.0 ng/ml alone", "result": "-1.0 ± 1.8", "unit": "%"},
      {"measurement": "% specific lysis (M SE)", "setting": "PMA 3.0 ng/ml with rIL-2 20 U/ml", "result": "4.3 ± 1.4", "unit": "%"},
      {"measurement": "% specific lysis (M SE)", "setting": "PMA 10.0 ng/ml alone", "result": "-0.9 ± 1.6", "unit": "%"},
      {"measurement": "% specific lysis (M SE)", "setting": "PMA 10.0 ng/ml with rIL-2 20 U/ml", "result": "-0.4 ± 0.9", "unit": "%"}
    ]}
  ]
}
